Measurements reported in the NIST ThermoML archive (doi:10.1021/acs.jced.9b00377).
Numbers after ± are expanded uncertainties.

Tests used:
[1] = for viscosity: Falling or rolling sphere viscometry; for speed of sound: Single path-length method
[2] = refractive index (Na D-line) (dimensionless); details: 100 kPa, Liquid, Standard Abbe refractometry

CCCCCC(=O)[O-].CN(C)C(=[NH2+])N(C)C [1,1,3,3-tetramethylguanidinium hexanoate]
[1], 100 kPa, Liquid
Details	speed of sound [m/s]	viscosity [mPa·s]
293.15 K	1539 ± 50	1534 ± 640
298.15 K	1522.2 ± 50	1001 ± 410
303.15 K	1505.5 ± 50	657.8 ± 270
308.15 K	1488.8 ± 50	442.1 ± 180
313.15 K	1472.1 ± 50	309.8 ± 130
318.15 K	1455.4 ± 50	221.1 ± 89
323.15 K	1438.7 ± 50	159.5 ± 64
328.15 K	1423.6 ± 50	118.5 ± 48
333.15 K	1406.9 ± 50	89.4 ± 36
338.15 K	1390.2 ± 50	69.3 ± 28
343.15 K	1373.5 ± 50	54 ± 22

[1], 100 kPa, Liquid, Vibrating tube method
Details	mass density [kg/m3]
293.15 K	997.51 ± 2.1
298.15 K	994.1 ± 2.1
303.15 K	990.61 ± 2.1
308.15 K	987.16 ± 2.1
313.15 K	983.73 ± 2.1
318.15 K	980.29 ± 2.1
323.15 K	976.82 ± 2.1
328.15 K	973.32 ± 2.1
333.15 K	969.78 ± 2.1
338.15 K	966.22 ± 2.1
343.15 K	962.63 ± 2.1

[2]
Details	refractive index
293.15 K	1.4701 ± 0.01
298.15 K	1.4684 ± 0.01
303.15 K	1.466 ± 0.01
308.15 K	1.4638 ± 0.01
313.15 K	1.4619 ± 0.01
318.15 K	1.4601 ± 0.01
323.15 K	1.458 ± 0.01
328.15 K	1.4563 ± 0.01
333.15 K	1.4544 ± 0.01
338.15 K	1.4528 ± 0.01
343.15 K	1.4511 ± 0.01

CCCC(=O)[O-].CN(C)C(=[NH2+])N(C)C [1,1,3,3-tetramethylguanidinium butanoate]
[1], 100 kPa, Liquid
Details	speed of sound [m/s]	viscosity [mPa·s]
293.15 K	1593.6 ± 50	2480 ± 1000
298.15 K	1576.5 ± 50	1638 ± 680
303.15 K	1559.4 ± 50	1049 ± 430
308.15 K	1542.3 ± 50	694.1 ± 280
313.15 K	1525.1 ± 50	453.1 ± 180
318.15 K	1508 ± 50	318.2 ± 130
323.15 K	1490.9 ± 50	223.5 ± 90
328.15 K	1475.5 ± 50	158.5 ± 64
333.15 K	1458.4 ± 50	114 ± 46
338.15 K	1441.3 ± 50	88.1 ± 35
343.15 K	1424.1 ± 50	65.7 ± 26

[1], 100 kPa, Liquid, Vibrating tube method
Details	mass density [kg/m3]
293.15 K	1032.2 ± 2.2
298.15 K	1028.74 ± 2.2
303.15 K	1025.27 ± 2.2
308.15 K	1021.74 ± 2.2
313.15 K	1018.24 ± 2.1
318.15 K	1014.77 ± 2.1
323.15 K	1011.3 ± 2.1
328.15 K	1007.79 ± 2.1
333.15 K	1004.24 ± 2.1
338.15 K	1000.67 ± 2.1
343.15 K	997.07 ± 2.1

[2]
Details	refractive index
293.15 K	1.4823 ± 0.01
298.15 K	1.4809 ± 0.01
303.15 K	1.4794 ± 0.01
308.15 K	1.4781 ± 0.01
313.15 K	1.4766 ± 0.01
318.15 K	1.4753 ± 0.01
323.15 K	1.474 ± 0.01
328.15 K	1.4727 ± 0.01
333.15 K	1.4716 ± 0.01
338.15 K	1.4704 ± 0.01
343.15 K	1.4693 ± 0.01

CCCCC(=O)[O-].CN(C)C(=[NH2+])N(C)C [1,1,3,3-tetramethylguanidinium pentanoate]
[1], 100 kPa, Liquid
Details	speed of sound [m/s]	viscosity [mPa·s]
293.15 K	1540.6 ± 50	1241 ± 510
298.15 K	1524.7 ± 50	797.9 ± 330
303.15 K	1508.7 ± 50	561.1 ± 230
308.15 K	1492.8 ± 50	382.2 ± 150
313.15 K	1476.8 ± 50	268.2 ± 110
318.15 K	1460.8 ± 50	199.7 ± 80
323.15 K	1444.9 ± 50	147.7 ± 59
328.15 K	1430.5 ± 50	111.4 ± 45
333.15 K	1414.6 ± 50	85.2 ± 34
338.15 K	1398.6 ± 50	67.7 ± 27
343.15 K	1382.7 ± 50	54 ± 22

[1], 100 kPa, Liquid, Vibrating tube method
Details	mass density [kg/m3]
293.15 K	1010.3 ± 2.1
298.15 K	1006.9 ± 2.1
303.15 K	1003.4 ± 2.1
308.15 K	1000 ± 2.1
313.15 K	996.64 ± 2.1
318.15 K	993.25 ± 2.1
323.15 K	989.84 ± 2.1
328.15 K	986.42 ± 2.1
333.15 K	982.98 ± 2.1
338.15 K	979.53 ± 2.1
343.15 K	976.07 ± 2.1

[2]
Details	refractive index
293.15 K	1.4776 ± 0.01
298.15 K	1.4758 ± 0.01
303.15 K	1.4736 ± 0.01
308.15 K	1.4718 ± 0.01
313.15 K	1.4699 ± 0.01
318.15 K	1.4681 ± 0.01
323.15 K	1.4664 ± 0.01
328.15 K	1.4648 ± 0.01
333.15 K	1.4633 ± 0.01
338.15 K	1.4615 ± 0.01
343.15 K	1.46 ± 0.01

CN(C)C(=[NH2+])N(C)C.O=C([O-])O [1,1,3,3-tetramethylguanidinium hydrogen carbonate]
Details	mass density [kg/m3]
[1], 173 K, 101.33 kPa, Crystal, X-ray diffraction	1213 ± 12

CCCCCCC(=O)[O-].CN(C)C(=[NH2+])N(C)C [1,1,3,3-tetramethylguanidinium heptanoate]
[1], 100 kPa, Liquid
Details	speed of sound [m/s]	viscosity [mPa·s]
293.15 K	1535.5 ± 50	1827 ± 760
298.15 K	1517.9 ± 50	1144 ± 470
303.15 K	1500.2 ± 50	740.8 ± 300
308.15 K	1482.5 ± 50	493.9 ± 200
313.15 K	1464.8 ± 50	336.9 ± 140
318.15 K	1447.2 ± 50	242.3 ± 98
323.15 K	1429.5 ± 50	172.9 ± 70
328.15 K	1413.6 ± 50	126.7 ± 51
333.15 K	1395.9 ± 50	94.4 ± 38
338.15 K	1378.2 ± 50	71.6 ± 29
343.15 K	1360.6 ± 50	55.8 ± 22

[1], 100 kPa, Liquid, Vibrating tube method
Details	mass density [kg/m3]
293.15 K	986.16 ± 2.1
298.15 K	982.69 ± 2.1
303.15 K	979.2 ± 2.1
308.15 K	975.61 ± 2.1
313.15 K	972.09 ± 2.1
318.15 K	968.56 ± 2.1
323.15 K	965 ± 2.1
328.15 K	961.39 ± 2.1
333.15 K	957.74 ± 2.1
338.15 K	954.06 ± 2.1
343.15 K	950.35 ± 2.1

[2]
Details	refractive index
293.15 K	1.4792 ± 0.01
298.15 K	1.4776 ± 0.01
303.15 K	1.4759 ± 0.01
308.15 K	1.474 ± 0.01
313.15 K	1.4722 ± 0.01
318.15 K	1.4707 ± 0.01
323.15 K	1.4689 ± 0.01
328.15 K	1.4674 ± 0.01
333.15 K	1.4656 ± 0.01
338.15 K	1.464 ± 0.01
343.15 K	1.4628 ± 0.01

CCCCCCCC(=O)[O-].CN(C)C(=[NH2+])N(C)C [1,1,3,3-tetramethylguanidinium octanoate]
[1], 100 kPa, Liquid
Details	speed of sound [m/s]	viscosity [mPa·s]
293.15 K	1497.3 ± 50	1093 ± 450
298.15 K	1481.3 ± 50	737.2 ± 300
303.15 K	1465.4 ± 50	506.8 ± 210
308.15 K	1449.4 ± 50	347.6 ± 140
313.15 K	1433.5 ± 50	249.6 ± 100
318.15 K	1417.5 ± 50	186.8 ± 75
323.15 K	1401.6 ± 50	138.8 ± 56
328.15 K	1387.2 ± 50	105.7 ± 42
333.15 K	1371.3 ± 50	81.2 ± 32
338.15 K	1355.3 ± 50	65 ± 26
343.15 K	1339.4 ± 50	52.5 ± 21

[1], 100 kPa, Liquid, Vibrating tube method
Details	mass density [kg/m3]
293.15 K	969.06 ± 2.1
298.15 K	965.65 ± 2.1
303.15 K	962.28 ± 2.1
308.15 K	958.95 ± 2.1
313.15 K	955.63 ± 2.1
318.15 K	952.3 ± 2.1
323.15 K	948.95 ± 2.1
328.15 K	945.59 ± 2.1
333.15 K	942.23 ± 2.1
338.15 K	938.85 ± 2.1
343.15 K	935.46 ± 2.1

[2]
Details	refractive index
293.15 K	1.4678 ± 0.01
298.15 K	1.4657 ± 0.01
303.15 K	1.4631 ± 0.01
308.15 K	1.4612 ± 0.01
313.15 K	1.4589 ± 0.01
318.15 K	1.4565 ± 0.01
323.15 K	1.4544 ± 0.01
328.15 K	1.4523 ± 0.01
333.15 K	1.4501 ± 0.01
338.15 K	1.4482 ± 0.01
343.15 K	1.4463 ± 0.01
